The values that follow come from patent US20050026836A1, “Composition for the treatment of damaged tissue” (priority 1999, published 2005).

Common to all, as to format: biochemical
Assay [1] concerns the target T1, catalytic domain of human MMP-9 (Homo sapiens, UniProt P14780).
T1 sequence (P14780 with tags, fused parts or gaps DEL216-390 limits assumed): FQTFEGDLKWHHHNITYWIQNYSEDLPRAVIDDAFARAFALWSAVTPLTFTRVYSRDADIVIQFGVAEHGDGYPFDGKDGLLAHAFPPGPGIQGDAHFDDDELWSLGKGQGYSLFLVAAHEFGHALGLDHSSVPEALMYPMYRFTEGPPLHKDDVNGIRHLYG
In words: MMP-9 fluorogenic inhibition assay. The following applies: read-out: Calculated Ki(nM) MMP-9. The procedure: All enzymes were pre-activated at 37° C. with aminophenylmercuric acetate (APMA) or trypsin before being made up to the final concentrations used in the assay. MMP-1 (30 nM) was activated with 0.93 mM APMA for 20 minutes, MMP-2 (30 nM) was activated with 1.32 mM APMA for 1 hour, MMP-3 (1010 nM) was activated with 1.81 mM APMA for 3 hours or heat activated at 55° C. for three hours, MMP-9 (100 nM) was activated with 2 mM APMA for 2 hours, human MMP-13 (100 nM) was activated with 2 mM APMA for 2 hours, and MMP-14 (900 nM) was activated with 0.9 ng/ml trypsin for 25 minutes, followed by the addition of 4.5 ng/ml trypsin inhibitor.
For MMP-1, the assay buffer used was 50 mM Tris, 200 mM NaCl, 5 mM CaCl2, 20 μM ZnCl2, 0.05% (w/v) Brij 35, pH 7.5. […] For MMP-13, the assay buffer used was 50 mM Tris, pH 7.5, 200 mM NaCl, 5 mM CaCl2, […] and 0.02% (w/v) Brij 35. For MMP-14, the assay buffer used was 50 mM Tris, 100 mM NaCl, 10 mM CaCl2, 0.25% (w/v) Brij 35, pH 7.5.
MMP-2, MMP-3 and MMP-9 inhibition was assayed by incubating activated catalytic domain of human MMP-2, MMP-3 and MMP-9 at 1 nM in assay buffer with 5 μM substrate Mca-Arg-Pro-Lys-Pro-Tyr-Ala-Nva-Trp-Met-Lys(Dnp)-NH2, and six different concentrations of inhibitor. The incubation was performed at 37° C. for 60 minutes.
The final assay concentrations of inhibitors used in the MMP-1 assays to determine Ki were 50, 40, 30, 20, 10 and 5 μM. For MMP-2, the final assay concentrations of inhibitors used were 1000, 800, 600, 400, 200 and 100 nM. For MMP-3, the final assay concentrations of inhibitors used were 5, 4, 3, 2, 1 and 0.5 nM. For MMP-9 and MMP-14, the final assay concentrations of inhibitors used were 5, 4, 3, 2, 1 and 0.5 μM.
All assays were carried out in a black 96-well plate with a final volume of 100 μl in each well. […] For MMP-2, MMP-3, MMP-9 and MMP-14, fluorescence was read every 2 minutes at […] and 393 nm γem for 1 hour using a Fluorostar fluorimeter (BMG) with BIOLISE software. For MMP-1 assays, the filters used were 355 nm γex and 440 nm γem; fluorescence was read every 2 minutes for 1 hour. […]

Assay [2] concerns the target T2, MMP-13 (Homo sapiens, UniProt P45452).
T2 construct: made in house
In words: Reduction of MMP-13-catalysed degradation of KGF-2. The following applies: MMP-13 / KGF-2, read-out: Percentage inhibition of proteolysis.

The target of another assay is T3, MMP-3 (Homo sapiens, UniProt P08254).
T3 construct: made in house
In words: Reduction of MMP-3-catalysed degradation of KGF-2. The note with it: MMP-3 / KGF-2, read-out: Percentage inhibition of proteolysis.

Assay [3] deals with T2, MMP-13. Put plainly: MMP-13 fluorogenic inhibition assay. The following applies: estimated from IC50; read-out: Calculated Ki(nM) MMP-13. The procedure: All enzymes were pre-activated at 37° C. with aminophenylmercuric acetate (APMA) or trypsin before being made up to the final concentrations used in the assay.
For MMP-1, the assay buffer used was 50 mM Tris, 200 mM NaCl, 5 mM CaCl2, 20 μM ZnCl2, 0.05% (w/v) Brij 35, pH 7.5. […] For MMP-13, the assay buffer used was 50 mM Tris, pH 7.5, 200 mM NaCl, 5 mM CaCl2, […] and 0.02% (w/v) Brij 35.
Assays were carried out in 96-well microfluor plates. All incubations were performed at 37° C. and fluorescence readings determined at 360 nm γex and 450 nm γem.
For the assay, the fluorescence values at time zero were subtracted from those determined at 15 or 20 minutes. The % response was then calculated by comparison to positive controls (enzyme, buffer and substrate in the absence of inhibitor). IC50 values were then determined using FitCurve (Excel Tessella Stats add-in).
These were estimated using the following equation: IC50=(Ki*[…], where S is the substrate concentration and Km the Michaelis-Menton coefficient. Serine Protease Assays

As usually defined, the Ki is a dissociation constant, usually derived from enzyme kinetics or from competition with a known ligand. The inhibition is the share of the control response that was lost under treatment.

T3 sequence (P08254 100-272 limits assumed): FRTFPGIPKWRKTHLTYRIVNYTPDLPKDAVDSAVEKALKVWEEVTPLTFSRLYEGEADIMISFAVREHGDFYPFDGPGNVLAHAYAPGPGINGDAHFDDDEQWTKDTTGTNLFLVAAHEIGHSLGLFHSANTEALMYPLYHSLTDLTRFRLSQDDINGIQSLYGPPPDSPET

Turning to `COC[C@@H](NC(=O)[C@@H](NC(=O)[C@H](CCCc1ccc(-c2cccc(OC)c2)c(C)c1)CC(=O)O)C(C)(C)C)c1ccccc1` [compound 9454, (3R)-3-({[(1S)-2,2-Dimethyl-1-({[(1S)-2-methoxy-1-phenylethyl]amino}carbonyl)propyl]amino}carbonyl)-6-(3′-methoxy-2-methylbiphen-4-yl)hexanoic acid], the figures for the Ki (in assay [1]; at MMP-13 [3]) were 52400 nM and 857 nM, respectively. The inhibition at 0.1 µM on MMP-13 [2] (inhibitor 0.1 μM) came out at 1.6%; at MMP-3 (inhibitor 0.1 μM), 45%. Further, the inhibition at 1 µM at MMP-13 [2] (inhibitor 1 μM) amounted to 10%; on MMP-3 (inhibitor 1 μM), 30%. Further, the inhibition at 10 µM came to 23.7% at MMP-13 [2] (inhibitor 10 μM) and 62% on MMP-3 (inhibitor 10 μM). For the same compound, the inhibition at 100 µM at MMP-13 [2] (inhibitor 100 μM) was determined as 82.9%; on MMP-3 (inhibitor 100 μM), 68%.
